Experimental data: patent US20220274961A1, “SUBSTITUTED FUSED BI- OR TRI- HETEROCYCLIC COMPOUNDS AS EHMT2 INHIBITORS” (priority 2016, published 2022)

Experiments:
[1] = target: T1, human EHMT2 913-1193 (Homo sapiens, UniProt Q96KQ7); test: biochemical; details: recombinant human EHMT2 913-1193, histone H3 1-15 peptide, 3H-SAM, balanced conditions; read-out: EHMT2 PEP (IC50 μM)
T1 construct: recombinant purified human EHMT2 913-1193, Viva; purchased Viva
T1 sequence (Q96KQ7 913-1193): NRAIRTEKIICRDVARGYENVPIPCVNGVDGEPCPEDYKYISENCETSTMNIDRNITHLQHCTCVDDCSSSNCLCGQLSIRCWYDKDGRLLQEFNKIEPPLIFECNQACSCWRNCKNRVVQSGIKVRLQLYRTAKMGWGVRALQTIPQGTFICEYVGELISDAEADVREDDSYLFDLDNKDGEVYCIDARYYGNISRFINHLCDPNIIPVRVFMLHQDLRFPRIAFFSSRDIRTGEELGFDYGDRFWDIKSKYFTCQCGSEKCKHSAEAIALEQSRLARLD
Description: Biotinylated histone peptides were synthesized by Biopeptide and HPLC-purified to >95% purity. Streptavidin Flashplates and seals were purchased from PerkinElmer and 384 Well V-bottom Polypropylene Plates were from Greiner. ^3H-labeled S-adenosylmethionine (^3H-SAM) was obtained from American Radiolabeled Chemicals with a specific activity of 80 Ci/mmol. Unlabeled SAM and S-adenosylhomocysteine (SAH) were obtained from American Radiolabeled Chemicals and Sigma-Aldrich respectively. […] 384-well Flashplates and 96-well filter binding plates were read on a TopCount microplate reader (PerkinElmer). Compound serial dilutions were performed on a Freedom EVO (Tecan) and spotted into assay plates using a Thermo Scientific Matrix PlateMate (Thermo Scientific). Reagent cocktails were added by Multidrop Combi (Thermo Scientific).
General Procedure for EHMT2 Enzyme Assay on Histone Peptide Substrate. 10-point curves of test compounds were made on a Freedom EVO (Tecan) using serial 3-fold dilutions in DMSO, beginning at 2.5 mM (final top concentration of compound was 50 μM and the DMSO was 2%). A 1 μL aliquot of the inhibitor dilution series was spotted in a polypropylene 384-well V-bottom plate (Greiner) using a Thermo Scientific Matrix PlateMate (Thermo Scientific). […] Reactions were incubated for 60 minutes at room temperature and quenched with 10 μL per well of 400 μM unlabeled SAM, then transferred to a 384-well streptavidin Flashplate (PerkinElmer) and washed in a Biotek ELx-405 well washer with 0.1% Tween after 60 minutes. 384-well Flashplates were read on a TopCount microplate reader (PerkinElmer).

[2] = target: T2, EHMT1 (Homo sapiens, UniProt Q9H9B1); test: EHMT1 PEP; assay type: biochemical
T2 sequence (Q9H9B1 1-1298): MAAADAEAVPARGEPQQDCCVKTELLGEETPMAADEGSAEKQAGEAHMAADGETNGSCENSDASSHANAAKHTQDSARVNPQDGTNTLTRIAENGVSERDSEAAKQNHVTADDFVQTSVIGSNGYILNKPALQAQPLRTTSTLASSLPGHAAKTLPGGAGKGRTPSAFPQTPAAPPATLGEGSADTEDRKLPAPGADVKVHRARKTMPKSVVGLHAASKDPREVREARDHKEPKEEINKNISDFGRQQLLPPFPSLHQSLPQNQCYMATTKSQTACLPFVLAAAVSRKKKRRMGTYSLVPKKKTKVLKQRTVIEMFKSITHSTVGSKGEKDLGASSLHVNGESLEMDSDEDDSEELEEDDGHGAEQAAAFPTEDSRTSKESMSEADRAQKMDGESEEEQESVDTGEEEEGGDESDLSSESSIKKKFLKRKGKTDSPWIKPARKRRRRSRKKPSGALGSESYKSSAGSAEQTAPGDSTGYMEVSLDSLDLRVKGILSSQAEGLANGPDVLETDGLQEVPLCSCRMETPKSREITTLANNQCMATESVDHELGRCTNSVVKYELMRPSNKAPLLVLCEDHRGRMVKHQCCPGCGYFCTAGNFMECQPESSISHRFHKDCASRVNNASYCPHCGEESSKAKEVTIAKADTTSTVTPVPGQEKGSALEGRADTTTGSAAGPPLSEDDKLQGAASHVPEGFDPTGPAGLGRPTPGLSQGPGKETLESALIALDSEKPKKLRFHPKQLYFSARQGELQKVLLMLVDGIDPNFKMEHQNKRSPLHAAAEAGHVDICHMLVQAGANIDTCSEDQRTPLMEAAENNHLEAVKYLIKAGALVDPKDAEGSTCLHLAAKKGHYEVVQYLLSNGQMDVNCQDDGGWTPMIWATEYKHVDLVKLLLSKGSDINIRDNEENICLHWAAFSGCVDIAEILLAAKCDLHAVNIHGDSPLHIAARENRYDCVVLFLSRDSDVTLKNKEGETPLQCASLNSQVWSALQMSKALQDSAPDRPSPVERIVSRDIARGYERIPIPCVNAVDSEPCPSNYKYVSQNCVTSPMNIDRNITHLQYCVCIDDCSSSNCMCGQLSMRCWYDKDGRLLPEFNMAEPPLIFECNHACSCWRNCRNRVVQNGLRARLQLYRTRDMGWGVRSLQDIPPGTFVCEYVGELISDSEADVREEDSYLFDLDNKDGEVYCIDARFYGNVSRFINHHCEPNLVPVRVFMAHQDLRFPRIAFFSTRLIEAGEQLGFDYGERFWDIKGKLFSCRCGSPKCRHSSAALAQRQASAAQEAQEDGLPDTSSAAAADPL

For `CNC1=Nc2cc(C#CC(C)N3CCCCC3)c(OC)cc2C12CCC2` (stereo not shown) [Compound 92], which IC50 [1] is on record?
The IC50 was less than 0.1 µM.

And the IC50 [2]?
Its IC50 is less than 0.1 µM.

Which IC50 [1] does the source give for `CCNc1nc2cc(OCCCN3CCCC3)c(OC)cc2n1C` [Compound 27] here?
Its IC50 is 0.1 to 1 µM.

What about the IC50 [2] of the same compound?
The IC50 was less than 0.1 µM.

`COCCNC1=Nc2cc(C#CCN3CCCCC3)c(OC)cc2C12CCC2` [Compound 99] was tested. Which IC50 [1] did it give?
The IC50 was less than 0.1 µM.

And the IC50 [2]?
Its IC50 is less than 0.1 µM.

What does the source list for `CNC1=Nc2cc(C#CCN3CCCC3)c(OC)cc2C12CCC2` [Compound 74]?
IC50 [1]: < 0.1 µM; IC50 [2]: < 0.1 µM

Which results are given for `COc1cc2c(cc1OCCCN1CCCC1)nc(NC1CCCC1)n2C` [Compound 30]?
IC50 [1]: 0.1 to 1 µM; IC50 [2]: 0.1 to 1 µM

What does the source list for `COc1cc2c(cc1CNCCN1CCCC1)N=C(NC1CCOCC1)C21CCC1` [Compound 76]?
IC50 [1]: 1 to 10 µM; IC50 [2]: 1 to 10 µM

For `COc1cc2c(cc1OCCCN1CCCC1)nc(C)n2C1CCCC1` [Compound 23, 1-cyclopentyl-6-methoxy-2-methyl-5-(3-(pyrrolidin-1-yl)propoxy)-1H-benzo[d]imidazole], which IC50 [1] is on record?
The IC50 was 0.1 to 1 µM.

What about the IC50 [2] of the same compound?
Its IC50 is 1 to 10 µM.

With `CCn1c(NC)nc2cc(CNCCN3CCCC3)c(OC)cc21` [Compound 41] as the compound, how does the IC50 [1] read?
The IC50 was less than 0.1 µM.

What about the IC50 [2] of the same compound?
The IC50 was less than 0.1 µM.

How did the IC50 [1] turn out when `CCNC1=Nc2cc(CNCCN3CCC3)c(OC)cc2C12CCC2` [Compound 72] was run?
Its IC50 is less than 0.1 µM.

And the IC50 [2]?
The IC50 was less than 0.1 µM.

For `CNC1=Nc2cc(C#C[C@@H](C)N3CCCC3)c(OC)cc2C12CCC2` [Compound 86], which IC50 [1] is on record?
The IC50 was 0.1 to 1 µM.

What about the IC50 [2] of the same compound?
Its IC50 is 0.1 to 1 µM.

With `COc1cc2sc(N)nc2cc1OCCCN1CCCC1` [Compound 6, 6-methoxy-5-[3-(pyrrolidin-1-yl)propoxy]-1,3-benzothiazol-2-amine] as the compound, how does the IC50 [1] read?
Its IC50 is 1 to 10 µM.

What about the IC50 [2] of the same compound?
The IC50 was 1 to 10 µM.

For `CNc1nc2cc(CNCCN3CCCC3)c(OC)cc2n1C` [Compound 37], which IC50 [1] is on record?
The IC50 was less than 0.1 µM.

And the IC50 [2]?
The IC50 was less than 0.1 µM.

Which IC50 [1] does the source give for `CCNc1nc2cc(OC[C@H](O)CN3CCCC3)c(OC)cc2n1C` [Compound 31] here?
Its IC50 is 0.1 to 1 µM.

What about the IC50 [2] of the same compound?
Its IC50 is less than 0.1 µM.

How did the IC50 [1] turn out when `COc1cc2c(cc1OCCCN1CCCC1)nc(N)n2C1CCCC1` [Compound 3, 1-cyclopentyl-6-methoxy-5-(3-(pyrrolidin-1-yl)propoxy)-1H-benzo[d]imidazol-2-amine] was run?
Its IC50 is less than 0.1 µM.

And the IC50 [2]?
The IC50 was less than 0.1 µM.
